Results published in patent publication US11433136B2, “Polyacetal polymers, conjugates, particles and uses thereof” (THE GENERAL HOSPITAL CORPORATION, priority 2015, dated 2022).

Key:
PAN02 tumors = assay: Orthotopic PAN02 pancreatic (PDAC) tumors in lean and obese mice; assay type: in vivo, mice (C57BL/6)
Procedure: (§1) Diet started at six weeks of age, continued for ten weeks (C57BL/6 and FVB), at which time tumors were implanted, and then continued until the end of experiments. In the spontaneous tumor models, diets were administered until tumor collection. Mice genetically deficient for leptin (ob/ob) on a standard chow for seven weeks gained weight compared to age matched WT mice (n=8-10/group for C57Bl/6, FVB and ob/ob, 4-10/group for KPC, 7-21/group for iKRAS). Left bars represent mice fed a low-fat diet, right bars represent mice fed a high fat diet for all groups except C57/B6 on the far right of the graph, in which the right bar represents the ob/ob mice. […] PAN02 and AK4.4 syngeneic tumors were orthotopically implanted in C57BL/6 and FVB mice respectively at ten weeks of diet (lean diet, left bars; and obese diet or ob/ob mice, right bars); ob/ob mice were implanted with PAN02 tumors at seven weeks of age. Tumors were collected 21 days later. Obese animals presented with higher tumor weights than lean counterparts in all models (n=8-10/group). FIG. 7D is representative images of mesenteric peritoneal dissemination in lean and obese mice implanted with PAN02 tumors. Mesenteries collected at the same time as tumors in FIG. 7C. FIG. 7E is a graph showing the quantification of mesenteric peritoneal metastasis in the PAN02 model. FIG. 7F is a graph showing the quantification of retro-peritoneal metastasis in the AK4.4 model. Data are shown as mean±standard error of the mean (SEM). P values were determined by the Student t-test. *, P<0.05; **, P<0.01; ***, P<0.001.
FIG. 9A is representative pictures of CD31(+) vessels and lectin in PAN02 tumors. Scale bars: 200 μm. FIG. 9B is a graph showing the quantification of the total (CD31+) and lectin-positive (CD31/lectin+) vessel area in PAN02 tumors. Obese mice (right bars) presented with decreased perfusion (n=3-6 tumors/group) compared to lean mice (left bars). […] Obese mice presented with increased hypoxia in tumors. […] 5-FU quantified via high performance liquid chromatography (HPLC). […] PAN02 tumors were orthotopically implanted at ten weeks of diet, treatments were initiated at day seven post-implantation and tumors resected at day 19. […] Data are shown as mean±SEM. P values were determined by the Student t-test unless otherwise stated. *, P<0.05; **, P<0.01
(§2) Expression of genes associated with AT-1 pathway activation and fibrosis/desmoplasia is increased in PAN02 (FIG. 10A) and AK4.4 (FIG. 10B) tumors from obese mice (right bars) in comparison to lean mice (left bars). […] Data normalized to lean group. 3-4 samples per group pooled in one single PCR array fibrosis gene set plate. […] Of note, similar to αSMA, the changes of AT1, as well as other desmoplasia related markers, were relatively mild in the lean setting. […] Data are shown as mean±SEM with the exception of FIGS. 10A and 10B. P values were determined by the Student t-test unless otherwise stated. *, P<0.05; **, P<0.01, ***p<0.001.
Obesity promoted infiltration of myeloid Gr-1(+)F4/80(−) cell population in PAN02 tumors in obese mice. FIG. 11B is a quantification normalized by total viable cells (i) or total CD45 leucocytes (ii) (n=4-6 tumors/group). FIG. 11C is representative FACS scatter plots of CD45(+)CD11b(+)Ly6G(+) tumor associated neutrophils (TANs), CD8(+) cytotoxic lymphocytes and CD4(+)CD25(+) regulatory T cells in PAN02 tumors in lean and obese setting. […] Obese promoted an increase in TANs and a decrease in CD8 cells in PAN02 tumors. A strong tendency for increased Tregs was also observed. […] Scale bars: 1 mm (whole tumors) and 100 μm (caption). […] (n=4-6 tumors/group). For bar graphs in FIGS. 11A, 11B, 11D, and 11E, left bars represent lean mice, and right bars represent obese mice. For the bar graph in FIG. 11J, left bars represent obese mice, and right bars represent obese mice with TAN depletion. Data are shown as mean±SEM. […]

[1] = system: cardiac and renal fibrosis; conditions: in vivo; cited from earlier work
PDAC = conditions: in vivo; cited from earlier work
AK4.4 tumors = assay: Orthotopic AK4.4 pancreatic (PDAC) tumors in lean and obese mice; assay type: in vivo, mice (FVB)
Procedure: as §1, §2
Quantification of total and lectin-positive vessel area in AK4.4 tumors. Obese mice (right bars) presented with decreased perfusion (n=5-12 tumors/group) compared to lean mice (left bars). […] Obese mice presented with increased expression of the hypoxia marker Hif-1α in tumors. […] Doxorubicin quantified via immunofluorescence (n=4 tumors/group). […] AK4.4 syngeneic tumors were orthotopically implanted at ten weeks of diet; treatments were initiated at day 7 post-implantation and tumors resected at day 19. […] Data in FIGS. 17A, 17C and 17D, are shown as mean±SEM. P values were determined by the Student t-test unless otherwise stated. *, P<0.05.
FIGS. 18A, 18B, 18C, 18D, 18E, 18F, and 18G show the additional effects of AT-1 inhibition on obesity-aggravated desmoplasia, perfusion and drug delivery. […] Scale bar: 30 μm (left panels), 500 μm (right panel). […] FIG. 18E is a western blot showing a decrease in αSMA expression in PAN02 tumors implanted in obese AT1 KO mice compared with obese WT mice (bands are part of a larger WB. Lean control group is depicted in FIG. 18F). […] Data in FIGS. 18D, 18F and 18G are shown as mean±SEM. In FIGS. 18C and 18F, far left bars represent lean mice, middle left bars represent lean mice treated with losartan, middle right bars represent obese mice, and […] bars represent obese mice treated with losartan.

[2] = system: mouse models of Marfan syndrome; conditions: affected mice; cited from earlier work
PDACs = assay: Effect of losartan on immune cell populations in tumors (model not stated); set-up: species or system mice; conditions: mouse, in vivo
Procedure: FIGS. 21A, 21B, and 21C show the effect of losartan on the immune tumor microenvironment. […] Error bars represent standard error of the mean. P values were determined by the Student t-test in A. *, P<0.05, **, P<0.01, ***, P<0.001.

Marfan syndrome = conditions: children; cited from earlier work
[3] = losartan with 5-FU, lean and obese
[4] = obese vs lean, treatment from day 7, tumors resected day 19

CCCCc1nc(Cl)c(CO)n1Cc1ccc(-c2ccccc2-c2nn[nH]n2)cc1 [losartan]
response to chemotherapy with AT1 blockade (PAN02 tumors; [3]): improved response to chemotherapy in obese, but not in lean animals
tumor αSMA protein expression (PAN02 tumors; obese and lean): tendency for reduced tumor αSMA protein expression in obese but not lean setting
chemotherapy delivery to tumors (PAN02 tumors; obese but not lean mice): increase chemotherapy delivery
tumor perfusion (PAN02 tumors; obese but not lean mice): tended to improve perfusion
cytokine expression in tumors (multiplex protein) (PAN02 tumors; obese mice): reduced the expression of multiple cytokines including IL-1
incidence of cardiac and renal fibrosis [1]: reduce the incidence of cardiac and renal fibrosis
desmoplasia in PDAC (PDAC): can reduce desmoplasia in PDAC
vascular perfusion, drug delivery and chemotherapy effectiveness (PDAC): can enhance vascular perfusion by decompressing vessels, leading to improved drug delivery and chemotherapy effectiveness
tumor αSMA protein expression (AK4.4 tumors; lean and obese): reduced tumor αSMA protein expression more dramatically in the obese setting
mRNA expression of markers of tumor fibrosis/desmoplasia (AK4.4 tumors; lean mice): did not alter these markers in lean mice
response to chemotherapy with AT1 blockade (AK4.4 tumors; [3]): improved response to chemotherapy in both lean and obese settings but with higher magnitude in obese setting
chemotherapy delivery to tumors (AK4.4 tumors; obese but not lean mice): increase chemotherapy delivery
tumor perfusion (AK4.4 tumors; obese but not lean mice): tended to improve perfusion
cytokine expression in tumors (multiplex protein) (AK4.4 tumors; obese mice): reduced the expression of multiple cytokines including IL-1
mRNA expression of markers of tumor fibrosis/desmoplasia (AK4.4 tumors; obese mice): reverted by losartan
tumor fibrillar collagen (SHG) and collagen-1 expression (AK4.4 tumors; obese mice): reduced tumor fibrillar collagen (top panels) as well as collagen-1 expression
expression of AT1 signaling and desmoplasia-related markers (western blotting) (AK4.4 tumors; obese vs lean): normalized the obesity-augmented expression
blood vessel architecture and aortic aneurysms [2]: striking effects in improving blood vessel architecture and prevented the development of aortic aneurysms
enrichment for GR(+)F480(−) cells within the CD45 population (PDACs): tended to decrease the enrichment for GR(+)F480(−) cells
enrichment for T regulatory cells within CD4 cells (PDACs): tended to decrease the enrichment
progression of aortic and muscular lesions (Marfan syndrome): can strikingly prevent progression of aortic and muscular lesions

O=c1[nH]cc(F)c(=O)[nH]1 [Example 5-FU, 5-fluorouracil]
delivery of chemotherapy to tumors, 5-FU quantified via HPLC (PAN02 tumors; obese vs lean mice): decreased delivery
response to chemotherapy (tumor growth) (PAN02 tumors; [4]): less effective in preventing PAN02 tumor growth in obese animals than in lean
response to chemotherapy (tumor growth) (AK4.4 tumors; [4]): less effective in preventing tumor growth in obese animals
